Test results as given in PubChem BioAssay (NCI).
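Compound exposure: 48 hours, 5 concentrations, 96-well plates. TGI: concentration producing complete growth inhibition.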

Tests used:
Experiment in all cases: DTP human tumour cell line panel, 48 h
[1] = test system: SR leukemia
[2] = test system: NCI-H23 lung
[3] = test system: HS 578T breast
[4] = test system: MDA-MB-435
[5] = test system: NCI/ADR-RES ovarian
[6] = test system: SF-539 CNS
[7] = test system: BT-549 breast
[8] = test system: T-47D breast
[9] = test system: SW-620 colon
[10] = test system: ACHN renal
[11] = test system: RXF 393 renal
[12] = test system: NCI-H460 lung
[13] = test system: A549 NSCLC
[14] = test system: PC-3 prostate
[15] = test system: NCI-H522 lung
[16] = test system: SNB-75 CNS
[17] = test system: SK-MEL-5 melanoma
[18] = test system: SNB-19 CNS
[19] = test system: LOX IMVI melanoma

| Structure (SMILES) | TGI [1] [µM] | TGI [2] [µM] | TGI [3] [µM] | TGI [4] [µM] | TGI [5] [µM] | TGI [6] [µM] | TGI [7] [µM] | TGI [8] [µM] | TGI [9] [µM] | TGI [10] [µM] | TGI [11] [µM] | TGI [12] [µM] | TGI [13] [µM] | TGI [14] [µM] | TGI [15] [µM] | TGI [16] [µM] | TGI [17] [µM] | TGI [18] [µM] | TGI [19] [µM] |
| --- | --- | --- | --- | --- | --- | --- | --- | --- | --- | --- | --- | --- | --- | --- | --- | --- | --- | --- | --- |
| N#Cc1nc(CSCc2ccccc2)oc1N | > 100 | > 100 | > 100 | > 100 | > 100 | > 100 | > 100 | > 100 | > 100 | > 100 | > 100 | > 100 | > 100 | > 100 | > 100 |  |  |  |  |
| COc1ccc(/C(CCl)=C(\Nc2ccccc2)c2ccc(OC)c(OC)c2)cc1OC |  | > 100 | > 100 | > 100 | > 100 | > 100 | > 100 | > 100 | > 100 | > 100 | > 100 | > 100 | > 100 | > 100 | > 100 | > 100 | > 100 | > 100 | > 100 |
| O=c1cc(CO)n(CCc2c[nH]c3ccccc23)cc1O |  | > 100 | > 100 | > 100 | 99.6 | > 100 | > 100 | 80.5 | > 100 | > 100 |  | > 100 | > 100 | > 100 | 78.7 |  | > 100 | > 100 | > 100 |
| COc1ccc(-c2cc(-c3ccc(Cl)cc3)n(C3OC(CO)C(O)C(O)C3O)c(=S)c2C#N)cc1 (centres undefined) | > 100 |  | > 100 | > 100 |  | > 100 | > 100 | > 100 | > 100 | > 100 |  | > 100 |  | > 100 |  | > 100 | > 100 | > 100 | > 100 |
| Nc1nc(N)c(C2=CCN(Cc3ccccc3)CC2)c(=O)[nH]1 |  | > 100 | > 100 | > 100 | > 100 | > 100 | > 100 | > 100 | > 100 | > 100 | > 100 | > 100 | > 100 | > 100 | > 100 | > 100 | > 100 | > 100 |  |
| COc1cc(C2S/C(=C/c3ccccc3)C(=O)N2c2cc(Cl)ccc2Cl)cc(OC)c1OC (centres undefined) | > 100 | > 100 |  | > 100 | > 100 | 42.9 | > 100 | > 100 | > 100 | > 100 | > 100 | > 100 | > 100 | > 100 | 50.4 |  | > 100 | > 100 | 36.1 |
| COc1ccc(C2=C(Cl)c3cc(OC)c(OC)cc3C2=O)cc1OC | > 100 | 26.7 | 87.4 | 29.4 | 51.5 | 35.9 | 29.5 | 10.9 | 31.3 | 17.2 | 18 |  | > 100 |  | 27 | > 100 | 31.7 | > 100 | 24.7 |
| COC(=O)Nc1nc2ccc(Oc3ccc4nc(NC(=O)OC)[nH]c4c3)cc2[nH]1 | > 21.9 | > 100 |  | 0.166 | > 100 | 1.69 | > 100 | > 100 | 11.2 | > 100 | > 22.8 | > 100 | > 100 | > 78.5 | > 100 | 2.87 | 4.19 | > 100 | > 100 |
| O[C@@]1(c2cccs2)c2cccc(Cl)c2[C@](O)(c2cccs2)c2cccc(Cl)c21 |  | 39.8 | 49.2 | 35 | > 100 | > 100 | 48.1 | > 100 | 44.8 | 39.5 | 38.2 | 34.2 | 43.7 | 50.7 | 55.6 | > 100 | 34.7 | 80.3 | 33.2 |
| Cc1cc(C)nc(NS(=O)(=O)c2ccc(NN=c3c4ccccc4n(C)c4ccccc34)cc2)n1 |  | > 100 | > 100 | 69.1 | > 100 | > 100 | > 100 | 80.8 | > 100 | 77.4 | 50.8 | > 100 | > 100 | > 100 | 61.5 | 96.9 | 62.9 | > 100 | 96.7 |
| CC1CC(C)[C@H](O)C([C@H](O)CC2CC(=O)N(C)C(=O)C2)C1 (some centres undefined) |  | > 100 | > 100 | > 100 | > 100 | > 100 | > 100 | > 100 | > 100 | > 100 | > 100 | > 100 | > 100 | > 100 | > 100 | > 100 | > 100 | > 100 | > 100 |
| Cc1nc(Cl)c(Cl)c(Cl)n1 |  | 2.1 | 4.49 | 1.71 | 15.3 | 2.82 | 0.482 | 7.71 | 0.149 | 1.1 | 1.85 | 6.33 | 3.25 | 0.988 | 3.88 | 2.7 | 1.97 | 2.74 | 0.585 |
| C[C@]12CCC3c4ccc(O)cc4CC[C@H]3C1CC(=O)N(N)C2=O (some centres undefined) | > 100 | > 100 | > 100 | > 100 |  | > 100 | > 100 | > 100 | > 100 | > 100 | > 100 | > 100 | > 100 | > 100 | > 100 | > 100 | > 100 | > 100 |  |
| C=C(C)[C@@H]1C[C@H]2O[C@](O)(C(=C)CC(=O)/C=C(/C)C[C@@H]3OC(=O)[C@]24O[C@@H]34)[C@H]1O | > 100 | > 100 |  | > 100 | > 100 | > 100 | > 100 | > 100 | > 100 | > 100 | > 100 | > 100 | > 100 | > 100 | > 100 | > 100 | > 100 | > 100 | > 100 |
| C[C@@]12c3c4ccc(C=O)c3Oc3ccc(C=O)c(c31)Oc1c(C=O)ccc(c12)O4 | > 100 | > 100 | > 100 | > 100 | > 100 | > 100 | > 100 | > 100 | > 100 | > 100 |  | > 100 | > 100 | > 100 |  | > 100 | > 100 | > 100 | > 100 |
| CCC(CS(=O)(=O)O)[N+](=O)[O-] (centres undefined) |  | > 100 | > 100 | > 100 | > 100 | > 100 | > 100 | > 100 | > 100 | > 100 | > 100 | > 100 | > 100 | > 100 | > 100 | > 100 | > 100 | > 100 | > 100 |
| CC(CN(C)C)C(=O)c1ccccc1C(=O)O (centres undefined) |  | 89.1 | 80.6 | 50.9 | 92.6 |  | 41.7 | > 100 | > 100 | > 100 | > 100 |  | > 100 | 94.5 | 36.6 |  | > 100 | > 100 | > 100 |
| NCC[Se][Se]CCN | > 100 | 30.6 | 82.2 | 24.9 | 58 | 34.4 | 27.8 | 64.4 | 48.9 | 22.8 | 32.5 | 21.9 | 25.3 | 27.5 | 25.6 | 27.4 | 18.4 | 20.7 |  |
| CCOC(=O)[C@@H]1C[C@H]1c1ccc(O)c(O)c1 | > 100 | > 100 | > 100 | > 100 | > 100 | > 100 | > 100 | 88.1 | > 100 | > 100 | 87.4 | > 100 | > 100 | > 100 | 47.2 |  | 31.3 | > 100 |  |
| CC1(C)OCC2(CO1)CSCCCSCC1(COC(C)(C)OC1)CSCCCSC2 | > 100 | > 100 |  | > 100 | > 100 | > 100 | > 100 | > 100 | > 100 |  |  | > 100 | > 100 | > 100 | > 100 | > 100 | > 100 | > 100 | > 100 |
| [N-]=[N+]=Nc1ccc(NCCCCCC(=O)ON2C(=O)CCC2=O)c([N+](=O)[O-])c1 |  | > 100 | 97.2 | > 100 | > 100 | > 100 | > 100 | > 100 | > 100 | > 100 | > 100 | > 100 | > 100 | > 100 | > 100 | > 100 | > 100 | > 100 | > 100 |
| C=C1CC(Cn2ccc(=O)[nH]c2=O)(c2ccc(-c3ccccc3)cc2)OC1=O (centres undefined) |  | 8.4 | 22.9 | 6.12 | 4.64 | 8.89 | 3.73 | 6.45 | 0.941 | 3.25 |  | 28.4 | 24.9 | 7.52 | 2.39 | 26.7 | 2.39 | 34 | 1.07 |
| O=C1CSC(/C=C/c2ccccc2)N1c1ccc(-c2ccc(-n3c(-c4ccccc4)nc4ccccc4c3=O)cc2)cc1 (centres undefined) | > 100 | > 100 |  | 49.3 | > 100 |  | 39.2 | > 100 | 65.1 | 94.9 |  | > 100 | 68 | 65.3 | 42.9 | 8.52 | 27.7 | 62.3 | 32.7 |
| COC(=O)CCC1(C)C2CCC1(C)/C(=N/O)C2 (centres undefined) |  | > 100 | > 100 | > 100 | > 100 |  | > 100 | > 100 | > 100 | > 100 | > 100 |  | > 100 | > 100 | > 100 | > 100 | > 100 | > 100 |  |
| CN(C)/C(N)=N/C(N)=Nc1cccc(Cl)c1 | > 100 | > 100 | > 100 | > 100 | > 100 | > 100 | 92.5 | 77.2 | > 100 | > 100 |  | > 100 | > 100 | > 100 |  | > 100 | 74.6 | > 100 | > 100 |
| Cc1cccc2[nH]c3cc(O)cc(O)c3c(=O)c12 |  | > 10 | > 10 | > 10 | > 10 | > 10 | > 10 | > 10 | > 10 | > 10 | > 10 | > 10 | > 10 | > 10 | > 10 | > 10 | > 10 | > 10 | > 10 |
| CCC(C)C(C(=O)N/N=C1/SCC(=O)N1C)C(=O)N/N=C1/SCC(=O)N1C (centres undefined) |  | > 100 | > 100 | > 100 | > 100 | > 100 | > 100 | > 100 | > 100 | > 100 | > 100 | > 100 | > 100 | > 100 | > 100 | > 100 | > 100 | > 100 | > 100 |
